From patent publication US20050090529A1, “3,5 Disubstituted indazole compounds with nitrogen-bearing 5-membered heterocycles, pharmaceutical compositions, and methods for mediating or inhibiting cell proliferation” (PFIZER INC, priority 2003, published 2005)
≈ marks a conversion by molar mass, not a printed value.

system: not listed separately; assay: Measurement of kinetic solubility; settings: 100 mM sodium phosphate buffer, pH 6.5, aqueous buffer, kinetic from dmso stock
Procedure: Kinetic solubility was determined with a […] stock solution from the compound(s) of interest. […] Samples and standards were then centrifuged and an aliquot was removed for HPLC analysis. Samples and standards were analyzed by HPLC and a final concentration for the sample was determined based on a one-point calibration curve from the corresponding standard. Results were reported as μg's/mL.

solubility [µg/mL] | Compound
> 120 | CCNCc1cncc(-c2ccc3[nH]nc(-c4ncc[nH]4)c3c2)c1C [Example 1, 5-(5-ethylaminomethyl-4-methylpyridin-3-yl)-3-(1H-imidazol-2-yl)-1H-indazole]
20 to 120 (≈ 41.7 to 250 µM) | CCNCc1cncc(-c2ccc3[nH]nc(-c4nc(-c5ccccc5)c(C(=O)NCC)[nH]4)c3c2)c1C [Example 2, 2-[5-(5-Ethylaminomethyl-4-methyl-pyridin-3-yl)-1H-indazol-3-yl]-5-phenyl-3H-imidazole-4-carboxylic acid ethylamide]
20 to 120 (≈ 39.2 to 235 µM) | CCNCc1cncc(-c2ccc3[nH]nc(-c4nc(-c5ccccc5)c(C(=O)NCCOC)[nH]4)c3c2)c1C [Example 3, 2-[5-(5-Ethylaminomethyl-4-methyl-pyridin-3-yl)-1H-indazol-3-yl]-5-phenyl-3H-imidazol-4-carboxylic acid (2-methoxy-ethyl)-amide]
20 to 120 (≈ 39.6 to 237 µM) | CCNCc1cncc(-c2ccc3[nH]nc(-c4nc(-c5ccccc5)c(C(=O)N5CCCC5)[nH]4)c3c2)c1C [Example 4, {2-[5-(5-Ethylaminomethyl-4-methyl-pyridin-3-yl)-1H-indazol-3-yl]-5-phenyl-3H-imidazol-4-yl}-pyrrolidin-1-yl-methanone]

Compound | solubility [µg/mL]
CCNCc1cncc(-c2ccc3[nH]nc(-c4nc(C(=O)NC5CN6CCC5CC6)c[nH]4)c3c2)c1C (stereo in doubt) [Example 73, N-[(3S)-1-azabicyclo[2.2.2]oct-3-yl]-2-(5-{5-[(ethylamino)methyl]-4-methylpyridin-3-yl}-1H-indazol-3-yl)-1H-imidazole-5-carboxamide] | > 120

target: T1, CDK2/Cyclin A (Homo sapiens, UniProt P24941); assay: Inhibition of CDK2/Cyclin A retinoblastoma kinase activity (apparent Ki); type: biochemical; settings: read-out: CDK2 Ki
T1 construct: made in house; host or cells: CDK2: insect cells (baculovirus); cyclin A: E. coli
Procedure: Cyclin-dependent kinase activity was measured by quantifying the enzyme-catalyzed, time-dependent incorporation of radioactive phosphate from [^32P]ATP or [^33P]ATP into a protein substrate. […] Reactions were initiated with enzyme, incubated at 30° C., and terminated after 20 minutes by the addition of ethylenediaminetetraacetic acid (EDTA) to 250 mM. […] Radioactivity was quantified by exposing the dried membranes to a phosphorimager.
Apparent Ki values were measured by assaying enzyme activity in the presence of different inhibitor compound concentrations and subtracting the background radioactivity measured in the absence of enzyme. Inhibition data were fit to an equation for competitive inhibition using Kaleidagraph (Synergy Software), or were fit to an equation for competitive tight-binding inhibition using the software KineTic (BioKin, Ltd.).
A complex of CDK2 and proteolyzed cyclin A was prepared and purified by gel filtration. […] Ki values were measured as described above.

Ki [nM] | Compound
< 50 | CCNCc1cncc(-c2ccc3[nH]nc(-c4ncc(C(=O)N5CCCC(Cc6ncccn6)CC5)[nH]4)c3c2)c1C (centres unmarked) [Example 79, N-({4-methyl-5-[3-(5-{[4-(pyrimidin-2-ylmethyl)azepan-1-yl]carbonyl}-1H-imidazol-2-yl)-1H-indazol-5-yl]pyridin-3-yl}methyl)ethanamine]
< 50 | CCNCc1cncc(-c2ccc3[nH]nc(-c4ncc(C(=O)NCCC5=CCCCC5)[nH]4)c3c2)c1C [Example 80, N-(2-cyclohex-1-en-1-ylethyl)-2-(5-{5-[(ethylamino)methyl]-4-methylpyridin-3-yl}-1H-indazol-3-yl)-1H-imidazole-5-carboxamide]
< 50 | CCNCc1cncc(-c2ccc3[nH]nc(-c4ncc(C(=O)N(CCN(C)C)Cc5ccccc5)[nH]4)c3c2)c1C [Example 81, N-benzyl-N-[2-(dimethylamino)ethyl]-2-(5-{5-[(ethylamino)methyl]-4-methylpyridin-3-yl}-1H-indazol-3-yl)-1H-imidazole-5-carboxamide]
< 50 | CCNCc1cncc(-c2ccc3[nH]nc(-c4ncc(C(=O)N(C)C5CCN(Cc6ccccc6)C5)[nH]4)c3c2)c1C (centres unmarked) [Example 82, N-(1-benzylpyrrolidin-3-yl)-2-(5-{5-[(ethylamino)methyl]-4-methylpyridin-3-yl}-1H-indazol-3yl)-N-methyl-1H-imidazole-5-carboxamide]
50 to 200 | CCNCc1cncc(-c2ccc3[nH]nc(-c4ncc(C(=O)N(C)C5CCN(C)C5)[nH]4)c3c2)c1C (centres unmarked) [Example 84, 2-(5-{5-[(ethylamino)methyl]-4-methylpyridin-3-yl}-1H-indazol-3-yl)-N-methyl-N-(1-methylpyrrolidin-3-yl)-1H-imidazole-5-carboxamide]
> 200 | CCNCc1cncc(-c2ccc3[nH]nc(-c4ocnc4C)c3c2)c1C [Example 88, N-({4-methyl-5-[3-(4-methyl-1,3-oxazol-5-yl)-1H-indazol-5-yl]pyridin-3-yl}methyl)ethanamine]
< 50 | CCNCc1cncc(-c2ccc3[nH]nc(-c4cc(C)n[nH]4)c3c2)c1C [Example 89, Ethyl-{4-methyl-5-[3-(5-methyl-2H-pyrazol-3-yl)-1H-indazol-5-yl]-pyridin-3-ylmethyl}-amine]
> 200 | CCNCc1cncc(-c2ccc3[nH]nc(-c4nnn[nH]4)c3c2)c1C [Example 91, Ethyl-{4-methyl-5-[3-(1H-tetrazol-5-yl)-1H-indazol-5-yl]-pyridin-3-ylmethyl}-amine]
< 50 | CCNCc1cncc(-c2ccc3[nH]nc(-c4nc(C)c[nH]4)c3c2)c1C [Example 92, N-({4-methyl-5-[3-(4-methyl-1H-imidazol-2-yl)-1H-indazol-5-yl]pyridin-3-yl}methyl)ethanamine]
< 50 | CNCc1cncc(-c2ccc3[nH]nc(-c4nc(C)c[nH]4)c3c2)c1C [Example 93, N-methyl-1-{4-methyl-5-[3-(4-methyl-1H-imidazol-2-yl)-1H-indazol-5-yl]pyridin-3-yl}methanamine]

The remaining lines, values behind:

Compound | Ki [nM]
CCNCc1cncc(-c2ccc3[nH]nc(-c4nc(C(=O)NC5CN6CCC5CC6)c[nH]4)c3c2)c1C (stereo in doubt) [Example 73, N-[(3S)-1-azabicyclo[2.2.2]oct-3-yl]-2-(5-{5-[(ethylamino)methyl]-4-methylpyridin-3-yl}-1H-indazol-3-yl)-1H-imidazole-5-carboxamide] | 50 to 200
CCNCc1cncc(-c2ccc3[nH]nc(-c4ncc[nH]4)c3c2)c1C [Example 1, 5-(5-ethylaminomethyl-4-methylpyridin-3-yl)-3-(1H-imidazol-2-yl)-1H-indazole] | < 50
CCNCc1cncc(-c2ccc3[nH]nc(-c4nc(-c5ccccc5)c(C(=O)NCC)[nH]4)c3c2)c1C [Example 2, 2-[5-(5-Ethylaminomethyl-4-methyl-pyridin-3-yl)-1H-indazol-3-yl]-5-phenyl-3H-imidazole-4-carboxylic acid ethylamide] | 50 to 200
CCNCc1cncc(-c2ccc3[nH]nc(-c4nc(-c5ccccc5)c(C(=O)NCCOC)[nH]4)c3c2)c1C [Example 3, 2-[5-(5-Ethylaminomethyl-4-methyl-pyridin-3-yl)-1H-indazol-3-yl]-5-phenyl-3H-imidazol-4-carboxylic acid (2-methoxy-ethyl)-amide] | 50 to 200
CCNCc1cncc(-c2ccc3[nH]nc(-c4nc(-c5ccccc5)c(C(=O)N5CCCC5)[nH]4)c3c2)c1C [Example 4, {2-[5-(5-Ethylaminomethyl-4-methyl-pyridin-3-yl)-1H-indazol-3-yl]-5-phenyl-3H-imidazol-4-yl}-pyrrolidin-1-yl-methanone] | 50 to 200
CCNCc1cncc(-c2ccc3[nH]nc(-c4nc(-c5ccc(OC)cc5)c[nH]4)c3c2)c1C [Example 34, Ethyl-(5-{3-[4-(4-methoxy-phenyl)-1H-imidazol-2-yl]-1H-indazol-5-yl}-4-methyl-pyridin-3-ylmethyl)-amine] | < 50
Cc1c(N)cncc1-c1ccc2[nH]nc(-c3nc4c([nH]3)CCCC4)c2c1 [Example 36, 4-Methyl-5-[3-(4,5,6,7-tetrahydro-1H-benzoimidazol-2-yl)-1H-indazol-5-yl]-pyridin-3-ylamine] | < 50
CCc1nc(-c2n[nH]c3ccc(-c4cncc(N)c4C)cc23)[nH]c1CC [Example 37, 5-[3-(4,5-Diethyl-1H-imidazol-2-yl)-1H-indazol-5-yl]-4-methyl-pyridin-3-ylamine] | < 50
Cc1c(N)cncc1-c1ccc2[nH]nc(-c3nc(-c4cccc(F)c4)c[nH]3)c2c1 [Example 38, 5-{3-[4-(3-Fluoro-phenyl)-1H-imidazol-2-yl]-1H-indazol-5-yl}-4-methyl-pyridin-3-ylamine] | < 50
Cc1c(N)cncc1-c1ccc2[nH]nc(-c3nc(-c4ccccc4)c[nH]3)c2c1 [Example 39, 4-Methyl-5-[3-(4-phenyl-1H-imidazol-2-yl)-1H-indazol-5-yl]-pyridin-3-ylamine] | < 50
Cc1c(N)cncc1-c1ccc2[nH]nc(-c3nc(-c4ccc(F)cc4)c[nH]3)c2c1 [Example 40, 5-{3-[4-(4-Fluoro-phenyl)-1H-imidazol-2-yl]-1H-indazol-5-yl}-4-methyl-pyridin-3-ylamine] | < 50
CNCc1cncc(-c2ccc3[nH]nc(-c4ncc[nH]4)c3c2)c1C [Example 45, {5-[3-(1H-Imidazol-2-yl)-1H-indazol-5-yl]-4-methyl-pyridin-3-ylmethyl}-methyl-amine] | < 50
CCNCc1cncc(-c2ccc3[nH]nc(-c4nc(C(=O)NCc5ccccn5)c[nH]4)c3c2)c1C [Example 52, 2-(5-{5-[(ethylamino)methyl]-4-methylpyridin-3-yl}-1H-indazol-3-yl)-N-(pyridin-2-ylmethyl)1H-imidazole-5-carboxamide] | < 50
CCNCc1cncc(-c2ccc3[nH]nc(-c4ncc(C(=O)N(CC)CC)[nH]4)c3c2)c1C [Example 56, N,N-diethyl-2-(5-{5-[(ethylamino)methyl]-4-methylpyridin-3-yl}-1H-indazol-3-yl)-1H-imidazole-5-carboxamide] | < 50
CCNCc1cncc(-c2ccc3[nH]nc(-c4nc(C(=O)N5CCN(C)CC5)c[nH]4)c3c2)c1C [Example 57, N-{[4-methyl-5-(3-{5-[(4-methylpiperazin-1-yl)carbonyl]-1H-imidazol-2-yl}-1H-indazol-5-yl)pyridin-3-yl]methyl}ethanamine] | < 50
CCNCc1cncc(-c2ccc3[nH]nc(-c4nc(C(=O)NC5CCCC5)c[nH]4)c3c2)c1C [Example 58, N-cyclopentyl-2-(5-{5-[(ethylamino)methyl]-4-methylpyridin-3-yl}-1H-indazol-3-yl)-1H-imidazole-5-carboxamide] | < 50
CCNCc1cncc(-c2ccc3[nH]nc(-c4ncc(C(=O)N5CCN(c6ccccc6)CC5)[nH]4)c3c2)c1C [Example 59, N-{[4-methyl-5-(3-{5-[(4-phenylpiperazin-1-yl)carbonyl]-1H-imidazol-2-yl}-1H-indazol-5-yl)pyridin-3-yl]methyl}ethanamine] | < 50
CCNCc1cncc(-c2ccc3[nH]nc(-c4ncc(C(=O)N5C[C@@H](C)O[C@@H](C)C5)[nH]4)c3c2)c1C [Example 60, N-({5-[3-(5-{[(2R,6S)-2,6-dimethylmorpholin-4-yl]carbonyl}-1H-imidazol-2-yl)-1H-indazol-5-yl]-4-methylpyridin-3-yl}methyl)ethanamine] | < 50
CCNCc1cncc(-c2ccc3[nH]nc(-c4ncc(C(=O)N5CCC(Oc6ccccc6)CC5)[nH]4)c3c2)c1C [Example 70, N-{[4-methyl-5-(3-{5-[(4-phenoxypiperidin-1-yl)carbonyl]-1H-imidazol-2-yl}-1H-indazol-5-yl)pyridin-3-yl]methyl}ethanamine] | < 50
CCNCc1cncc(-c2ccc3[nH]nc(-c4ncc(C(=O)N5CCN(CCOC)CC5)[nH]4)c3c2)c1C [Example 78, N-({5-[3-(5-{[4-(2-methoxyethyl)piperazin-1-yl]carbonyl}-1H-imidazol-2-yl)-1H-indazol-5-yl]-4-methylpyridin-3-yl}methyl)ethanamine] | < 50
